Among the data in patent publication US20220169628A1 (University of Florida Research Foundation, Incorporated, priority 2019, published 2022) are IC50 values, retold here.

Molecules are shown by their SMILES. A value given as a limit tells only on which side of the number the result lay.

One assay concerns RS4;11 cells. Put plainly: Cell viability assay, MTS, 48 h, RS4;11. Conditions: Homo sapiens, RS4-11, 48 h, 48 hours, read-out: IC50 (48 hours) RS4;11. It is filed as cell-based. The protocol: (§1) Acute lymphoblastic leukemia cells (MOLT-4 and RS4; 11) or small cell lung cancer (NCI-H146 or simply H146) were incubated with increasing concentrations of Bcl-xL degraders for 48 h. Cell viability was measured by tetrazolium-based MTS assay.

The next assay has as its system MOLT-4 cells. Put plainly: Cell viability assay, MTS, 48 h, MOLT-4. It is filed as cell-based. The following applies: Homo sapiens, MOLT-4, 48 h, 48 hours, read-out: IC50 (48 hours) MOLT-4. The protocol: as §1

`CC1(CNC(=O)COCCOCCOCCNc2cccc3c2C(=O)N(C2CCC(=O)NC2=O)C3=O)CCC(c2ccc(Cl)cc2)=C(CN2CCN(c3ccc(C(=O)NS(=O)(=O)c4ccc(N[C@H](CCN5CCOCC5)CSc5ccccc5)c(S(=O)(=O)C(F)(F)F)c4)cc3)CC2)C1` (stereo partly drawn) [compound 78, 4-(4-((4′-chloro-4-(13-((2-(2,6-dioxopiperidin-3-yl)-1,3-dioxoisoindolin-4-yl)amino)-3-oxo-5,8,11-trioxa-2-azatridecyl)-4-methyl-3,4,5,6-tetrahydro-[1,1′-biphenyl]-2-yl)methyl)piperazin-1-yl)-N-((4-(((R)-4-morpholino-1-(phenylthio)butan-2-yl)amino)-3-((trifluoromethyl)sulfonyl)phenyl)sulfonyl)benzamide]: the IC50 with RS4;11 cells and in the assay with MOLT-4 cells was below 0.05 µM throughout.
In the case of `Cc1ncsc1-c1ccc([C@H](C)NC(=O)[C@@H]2C[C@@H](O)CN2C(=O)[C@@H](NC(=O)CCC(=O)N2CCC(c3ccc(Cl)cc3)=C(CN3CCN(c4ccc(C(=O)NS(=O)(=O)c5ccc(N[C@H](CCN6CCOCC6)CSc6ccccc6)c(S(=O)(=O)C(F)(F)F)c5)cc4)CC3)C2)C(C)(C)C)cc1` [compound 79, (2S,4R)-1-((S)-2-(4-(4-(4-chlorophenyl)-5-((4-(4-(((4-(((R)-4-morpholino-1-(phenylthio)butan-2-yl)amino)-3-((trifluoromethyl)sulfonyl)phenyl)sulfonyl)carbamoyl)phenyl)piperazin-1-yl)methyl)-3,6-dihydropyridin-1(2H)-yl)-4-oxobutanamido)-3,3-dimethylbutanoyl)-4-hydroxy-N—((S)-1-(4-(4-methylthiazol-5-yl)phenyl)ethyl)pyrrolidine-2-carboxamide], the IC50 with RS4;11 cells and in the assay with MOLT-4 cells was above 0.5 µM in each case.
As to `Cc1ncsc1-c1ccc([C@H](C)NC(=O)[C@@H]2C[C@@H](O)CN2C(=O)[C@@H](NC(=O)CCCCCC(=O)N2CCC(c3ccc(Cl)cc3)=C(CN3CCN(c4ccc(C(=O)NS(=O)(=O)c5ccc(N[C@H](CCN6CCOCC6)CSc6ccccc6)c(S(=O)(=O)C(F)(F)F)c5)cc4)CC3)C2)C(C)(C)C)cc1` [compound 80, (2S,4R)-1-((S)-2-(7-(4-(4-chlorophenyl)-5-((4-(4-(((4-(((R)-4-morpholino-1-(phenylthio)butan-2-yl)amino)-3-((trifluoromethyl)sulfonyl)phenyl)sulfonyl)carbamoyl)phenyl)piperazin-1-yl)methyl)-3,6-dihydropyridin-1(2H)-yl)-7-oxoheptanamido)-3,3-dimethylbutanoyl)-4-hydroxy-N—((S)-1-(4-(4-methylthiazol-5-yl)phenyl)ethyl)pyrrolidine-2-carboxamide], the IC50 with RS4;11 cells and in the assay with MOLT-4 cells was above 0.5 µM throughout.
Consider `Cc1ncsc1-c1ccc([C@H](C)NC(=O)[C@@H]2C[C@@H](O)CN2C(=O)[C@@H](NC(=O)CCCCCCCCC(=O)N2CCC(c3ccc(Cl)cc3)=C(CN3CCN(c4ccc(C(=O)NS(=O)(=O)c5ccc(N[C@H](CCN6CCOCC6)CSc6ccccc6)c(S(=O)(=O)C(F)(F)F)c5)cc4)CC3)C2)C(C)(C)C)cc1` [compound 83, (2S,4R)-1-((S)-2-(10-(4-(4-chlorophenyl)-5-((4-(4-(((4-(((R)-4-morpholino-1-(phenylthio)butan-2-yl)amino)-3-((trifluoromethyl)sulfonyl)phenyl)sulfonyl)carbamoyl)phenyl)piperazin-1-yl)methyl)-3,6-dihydropyridin-1(2H)-yl)-10-oxodecanamido)-3,3-dimethylbutanoyl)-4-hydroxy-N—((S)-1-(4-(4-methylthiazol-5-yl)phenyl)ethyl)pyrrolidine-2-carboxamide], for which the figures for the half-maximal inhibitory concentration (IC50) with RS4;11 cells and with MOLT-4 cells were 0.15 to 0.5 µM and 0.05 to 0.15 µM, respectively.
The like results for `Cc1ncsc1-c1ccc([C@H](C)NC(=O)[C@@H]2C[C@@H](O)CN2C(=O)[C@@H](NC(=O)CCCCCCCCCC(=O)N2CCC(c3ccc(Cl)cc3)=C(CN3CCN(c4ccc(C(=O)NS(=O)(=O)c5ccc(N[C@H](CCN6CCOCC6)CSc6ccccc6)c(S(=O)(=O)C(F)(F)F)c5)cc4)CC3)C2)C(C)(C)C)cc1` [compound 84, (2S,4R)-1-((S)-2-(11-(4-(4-chlorophenyl)-5-((4-(4-(((4-(((R)-4-morpholino-1-(phenylthio)butan-2-yl)amino)-3-((trifluoromethyl)sulfonyl)phenyl)sulfonyl)carbamoyl)phenyl)piperazin-1-yl)methyl)-3,6-dihydropyridin-1(2H)-yl)-11-oxoundecanamido)-3,3-dimethylbutanoyl)-4-hydroxy-N—((S)-1-(4-(4-methylthiazol-5-yl)phenyl)ethyl)pyrrolidine-2-carboxamide] were, in that order, 0.15 to 0.5 µM and 0.15 to 0.5 µM.
The corresponding values for `Cc1ncsc1-c1ccc([C@H](C)NC(=O)[C@@H]2C[C@@H](O)CN2C(=O)[C@@H](NC(=O)CCCCCCCCCCC(=O)N2CCC(c3ccc(Cl)cc3)=C(CN3CCN(c4ccc(C(=O)NS(=O)(=O)c5ccc(N[C@H](CCN6CCOCC6)CSc6ccccc6)c(S(=O)(=O)C(F)(F)F)c5)cc4)CC3)C2)C(C)(C)C)cc1` [compound 85, (2S,4R)-1-((S)-2-(12-(4-(4-chlorophenyl)-5-((4-(4-(((4-(((R)-4-morpholino-1-(phenylthio)butan-2-yl)amino)-3-((trifluoromethyl)sulfonyl)phenyl)sulfonyl)carbamoyl)phenyl)piperazin-1-yl)methyl)-3,6-dihydropyridin-1(2H)-yl)-12-oxododecanamido)-3,3-dimethylbutanoyl)-4-hydroxy-N—((S)-1-(4-(4-methylthiazol-5-yl)phenyl)ethyl)pyrrolidine-2-carboxamide] are 0.05 to 0.15 µM and 0.05 to 0.15 µM.
With `Cc1ncsc1-c1ccc([C@H](C)NC(=O)[C@@H]2C[C@@H](O)CN2C(=O)[C@@H](NC(=O)COCCOCCOCCOC(=O)N2CCC(c3ccc(Cl)cc3)=C(CN3CCN(c4ccc(C(=O)NS(=O)(=O)c5ccc(N[C@H](CCN6CCOCC6)CSc6ccccc6)c(S(=O)(=O)C(F)(F)F)c5)cc4)CC3)C2)C(C)(C)C)cc1` [compound 86, (S)-13-((2S,4R)-4-hydroxy-2-(((S)-1-(4-(4-methylthiazol-5-yl)phenyl)ethyl)carbamoyl)pyrrolidine-1-carbonyl)-14,14-dimethyl-11-oxo-3,6,9-trioxa-12-azapentadecyl 4-(4-chlorophenyl)-5-((4-(4-(((4-(((R)-4-morpholino-1-(phenylthio)butan-2-yl)amino)-3-((trifluoromethyl)sulfonyl)phenyl)sulfonyl)carbamoyl)phenyl)piperazin-1-yl)methyl)-3,6-dihydropyridine-1(2H)-carboxylate], the IC50 with RS4;11 cells and in the assay on MOLT-4 cells was above 0.5 µM each time.
Regarding `Cc1ncsc1-c1ccc([C@H](C)NC(=O)[C@@H]2C[C@@H](O)CN2C(=O)[C@@H](NC(=O)COCCOCCOCCOCCOC(=O)N2CCC(c3ccc(Cl)cc3)=C(CN3CCN(c4ccc(C(=O)NS(=O)(=O)c5ccc(N[C@H](CCN6CCOCC6)CSc6ccccc6)c(S(=O)(=O)C(F)(F)F)c5)cc4)CC3)C2)C(C)(C)C)cc1` [compound 87, (S)-16-((2S,4R)-4-hydroxy-2-(((S)-1-(4-(4-methylthiazol-5-yl)phenyl)ethyl)carbamoyl)pyrrolidine-1-carbonyl)-17,17-dimethyl-14-oxo-3,6,9,12-tetraoxa-15-azaoctadecyl 4-(4-chlorophenyl)-5-((4-(4-(((4-(((R)-4-morpholino-1-(phenylthio)butan-2-yl)amino)-3-((trifluoromethyl)sulfonyl)phenyl)sulfonyl)carbamoyl)phenyl)piperazin-1-yl)methyl)-3,6-dihydropyridine-1(2H)-carboxylate], the IC50 in the assay with RS4;11 cells and in the assay on MOLT-4 cells was above 0.5 µM in each case.
As to `Cc1ncsc1-c1ccc([C@@H](C)NC(=O)[C@@H]2C[C@@H](O)CN2C(=O)[C@@H](NC(=O)CCCCCCCCCN2CCC(c3ccc(Cl)cc3)=C(CN3CCN(c4ccc(C(=O)NS(=O)(=O)c5ccc(N[C@H](CCN6CCOCC6)CSc6ccccc6)c(S(=O)(=O)C(F)(F)F)c5)cc4)CC3)C2)C(C)(C)C)cc1` [compound 88, (2S,4R)-1-((S)-2-(10-(4-(4-chlorophenyl)-5-((4-(4-(((4-(((R)-4-morpholino-1-(phenylthio)butan-2-yl)amino)-3-((trifluoromethyl)sulfonyl)phenyl)sulfonyl)carbamoyl)phenyl)piperazin-1-yl)methyl)-3,6-dihydropyridin-1(2H)-yl)decanamido)-3,3-dimethylbutanoyl)-4-hydroxy-N—((R)-1-(4-(4-methylthiazol-5-yl)phenyl)ethyl)pyrrolidine-2-carboxamide], the IC50 was above 0.5 µM in the assay with RS4;11 cells and 0.15 to 0.5 µM with MOLT-4 cells.
The like results for `Cc1ncsc1-c1ccc([C@H](C)NC(=O)[C@@H]2C[C@@H](O)CN2C(=O)[C@@H](NC(=O)COCCOCCOCCOCC(=O)NCC2(C)CCC(c3ccc(Cl)cc3)=C(CN3CCN(c4ccc(C(=O)NS(=O)(=O)c5ccc(N[C@H](CCN6CCOCC6)CSc6ccccc6)c(S(=O)(=O)C(F)(F)F)c5)cc4)CC3)C2)C(C)(C)C)cc1` (stereo partly drawn) [degrader #9, N1-((4′-chloro-4-methyl-6-((4-(4-(((4-(((R)-4-morpholino-1-(phenylthio)butan-2-yl)amino)-3-((trifluoromethyl)sulfonyl)phenyl)sulfonyl)carbamoyl)phenyl)piperazin-1-yl)methyl)-2,3,4,5-tetrahydro-[1,1′-biphenyl]-4-yl)methyl)-N14-((S)-1-((2S,4R)-4-hydroxy-2-(((S)-1-(4-(4-methylthiazol-5-yl)phenyl)ethyl)carbamoyl)pyrrolidin-1-yl)-3,3-dimethyl-1-oxobutan-2-yl)-3,6,9,12-tetraoxatetradecanediamide] were, in that order, 0.15 to 0.5 µM and above 0.5 µM.

For orientation: IC50 means the concentration needed to halve the response being measured.
